Key:
[1] = test system: arbuscular mycorrhizal fungi; assay: Infection rate of arbuscular mycorrhizal fungi in chives, soil with cystathionine, GSH or Phoron (Comparative Example 2); assay type: in vivo, Rhizophagus irregularis DAOM197198; details: 500 spores, 1 month, FIG. 6; for infection rate (amount of hyphae per root length): 0.1 or 1 mM in soil, vs control with 500 spores
Experimental: (§1) Specifically, monocotyledonous plants of Allium (chives; Allium schoenoprasum) were infected with arbuscular mycorrhizal fungi (Rhizophagus irregularis DAOM197198), and the infection rate (%) of the mycorrhizal fungi that had invaded inside the roots was determined.
(§2) Plants were infected with arbuscular mycorrhizal fungi in the same manner as in Example 2. That is, the medium (one-tenth of the amount, Hoagland No. 2 basal salt mixture (SIGMA), 0.1 mM KNO3) was added to fertilizer-free soil. As control samples, sterilized chive seeds were directly seeded in soil supplemented with spores of arbuscular mycorrhizal fungi (4,000 spores) and in soil supplemented with the spores and GSSG (10 or 100 microM). The plants were allowed to grow at 23 degrees C. with 16-hour light and 8-hour dark cycles for 4 weeks. Thereafter, chives were dug out, the arbuscular mycorrhizal fungi inside the root were stained with ink, and the infection rate of the mycorrhizal fungi (the amount of hyphae per root length (%)) was determined with observation under a microscope.
In the same manner as in Example 3, the medium (one-tenth of the amount, Hoagland No. 2 basal salt mixture (SIGMA), 0.1 mM KNO3) was added to fertilizer-free soil. As control samples, sterilized chive seeds were directly seeded in soil supplemented with spores of arbuscular mycorrhizal fungi (500 spores and 1,000 spores) and in soil supplemented with the 500 spores, cystathionine (0.1 or 1 mM), GSH (0.1 or 1 mM), and Phoron (0.1 or 1 mM). The plants were allowed to grow at 23 degrees C. with 16-hour light and 8-hour dark cycles for 1 month. Thereafter, chives were dug out, the arbuscular mycorrhizal fungi inside the root were stained with ink, and the infection potential of the mycorrhizal fungi (the amount of hyphae per root length (%)) was determined with observation under a microscope.

[2] = test system: arbuscular mycorrhizal fungi (Rhizophagus irregularis DAOM197198); details: 30 degrees C., 1 week, FIG. 7
Experimental: The modified M medium (0.3% gerlite, Becard and Fortin, 1988 New phytologist, 108, 211-218) was supplemented with oxidized glutathione (10 microM or 100 microM), spores of arbuscular mycorrhizal fungi (Rhizophagus irregularis DAOM197198) were inoculated, and culture was conducted at 30 degrees C. for 4 weeks. For comparison, arbuscular mycorrhizal fungi were cultured in the same manner, except that oxidized glutathione was not added. The number of hyphae elongated outside of the circle (a radius of 7.5 mm) centered on the inoculated portion of the medium was counted, and the extent of elongation was determined based on the number of spores.
In the same manner as in Example 1, reduced glutathione (10 mM) was added to the modified M medium (0.3% gerlite), spores of arbuscular mycorrhizal fungi (Rhizophagus irregularis DAOM197198) were inoculated therein, and culture was conducted at 30 degrees C. for 1 week. For comparison, arbuscular mycorrhizal fungi were cultured in the same manner, except that reduced glutathione was not added.

[3] = test system: arbuscular mycorrhizal fungi (Rhizophagus irregularis DAOM197198); assay: Infection rate of arbuscular mycorrhizal fungi in roots of Lotus japonicus grown in supplemented soil (Example 2); assay type: in vivo; details: Lotus japonicus, 4,000 spores, 4 weeks, FIG. 2
Experimental: Specifically, plants of Leguminosae (Lotus japonicus) were infected with arbuscular mycorrhizal fungi (Rhizophagus irregularis DAOM197198) in soil supplemented with GSSG, and the infection rate (%) of the mycorrhizal fungi invaded inside the roots was determined.
At the outset, the medium (one-tenth of the amount, Hoagland No. 2 basal salt mixture (SIGMA), 0.1 mM KNO3) was added to fertilizer-free soil. Also, control soil supplemented with spores of arbuscular mycorrhizal fungi (4,000 or 6,000 spores) and soil supplemented with spores of arbuscular mycorrhizal fungi (4,000 spores) and GSSG (10 or 100 microM) were prepared. Subsequently, seeds of Lotus japonicus (3 days after seeding) that had germinated in agar medium were transplanted therein. The plants were allowed to grow at 23 degrees C. with 16-hour light and 8-hour dark cycles for 4 weeks. Thereafter, Lotus japonicus was dug out, the arbuscular mycorrhizal fungi inside the root were stained with ink, and the infection rate of the mycorrhizal fungi (the amount of hyphae per root length (%)) was determined with observation under a microscope.

[4] = test system: arbuscular mycorrhizal fungi (Rhizophagus irregularis DAOM197198); assay: Infection rate of arbuscular mycorrhizal fungi in roots of chives (Allium schoenoprasum) grown in supplemented soil (Example 3); assay type: in vivo; details: chives, 4,000 spores, 10 or 100 microM in soil, 4 weeks; vs control; Dunnett's test, n=8; FIG. 3
Experimental: as §1, §2

[5] = test system: arbuscular mycorrhizal fungi (Rhizophagus irregularis DAOM197198); assay: Hyphal elongation of arbuscular mycorrhizal fungi in modified M medium, 4 weeks (Example 1); assay type: cell-based; details: 10 microM or 100 microM in medium, 30 degrees C., vs control without addition, p less than 0.05, Dunnett's test, n 16-19, FIG. 1
[6] = test system: root nodule bacteria (Mesorhizobium loti); assay: Root nodule bacterial infection of Lotus japonicus: root nodules and infection hyphae (Comparative Example 1); assay type: in vivo; details: 10 or 100 microM, FIG. 5
Experimental: In this comparative example, root nodule bacteria from Lotus japonicus plants (Mesorhizobium loti, a transformant comprising a fluorescent protein (DsRED) introduced thereinto) were used. Vermiculite was supplemented with B&D medium (Broughton and Dilworth, 1971), KNO3 (final concentration: 0.1 mM), root nodule bacteria, and oxidized glutathione at 0, 10, or 100 microM to prepare media. The resulting media (50 ml) were added to 300 ml of fertilizer-free soil (vermiculite) in a pot, and young plants of Lotus japonicus 3 days after seeding were planted therein. The infection hyphae that serve as the routes of infection with root nodule bacteria formed in the root hair cells of Lotus japonicus and the root nodules that are symbiotic organs formed in the roots of Lotus japonicus were examined 1 week and 2 weeks after the growth.

[7] = test system: arbuscular mycorrhizal fungi; assay: Infection rate of arbuscular mycorrhizal fungi in chives, soil supplemented with cystathionine (Example 4); assay type: in vivo; details: 1 mM in soil, 4 weeks, vs cystathionine-free control, FIG. 4
Experimental: Chives were used in this example. The medium (one-tenth of the amount, Hoagland No. 2 basal salt mixture (SIGMA), 0.1 mM KNO3) was added to fertilizer-free soil. As control samples, sterilized chive seeds were directly seeded in soil supplemented with spores of arbuscular mycorrhizal fungi (500 or 1,000 spores) and in soil supplemented with the spores and cystathionine (0.1 or 1 mM). The plants were allowed to grow at 23 degrees C. with 16-hour light and 8-hour dark cycles for 4 weeks. Thereafter, chives were dug out, the arbuscular mycorrhizal fungi inside the root were stained with ink, and the infection rate of the mycorrhizal fungi (the amount of hyphae per root length (%)) was determined with observation under a microscope.

## N[C@@H](CCC(=O)N[C@@H](CS)C(=O)NCC(=O)O)C(=O)O [reduced glutathione, N—(N-gamma-L-glutamyl-L-cysteinyl)glycine]
[1]
  infection rate (amount of hyphae per root length): inhibited
[2]; 10 mM
  hyphal elongation of arbuscular mycorrhizal fungi at high concentration: no hyphal elongation was observed
  spore survival: died
[2]; medium supplemented with reduced glutathione, vs no addition
  hyphal elongation of arbuscular mycorrhizal fungi: deteriorated hyphal elongation

## oxidized glutathione
[3]; 10 microM
  infection rate compared with control inoculated with 1.5 times greater amount of spores (6,000 spores): equivalent
[3]; 10 or 100 microM in soil, vs GSSG-free control (4,000 spores), Dunnett's test, n=8
  infection rate of the mycorrhizal fungi (amount of hyphae per root length): significantly enhanced
[3]; 100 microM
  infection rate compared with control inoculated with 1.5 times greater amount of spores (6,000 spores): enhance
[4]
  infection rate of the mycorrhizal fungi (amount of hyphae per root length): significantly enhanced
[5]
  hyphal elongation (number of hyphae elongated outside circle of radius 7.5 mm, per number of spores): significant effects of promoting hyphal elongation
[6]; 1 week after the growth
  formation of infection hyphae: significant inhibitory effects
  formation of root nodules: significant inhibitory effects
[6]; 2 weeks after the growth
  inhibitory effects on formation of infection hyphae: not observed
  inhibitory effects on formation of root nodules: not observed

## NC(CCSCC(N)C(=O)O)C(=O)O (centres unmarked) [cystathionine, 2-amino-4-(2-amino-2-carboxy-ethyl)thio-butanoic acid]
[1]; 1 mM
  infection rate compared with the sample supplemented with 1,000 spores: equivalent
[1]
  infection rate (amount of hyphae per root length): enhanced
[7]
  infection rate of the mycorrhizal fungi (amount of hyphae per root length): significantly enhanced

## CC(C)=CC(=O)C=C(C)C [Phoron, reference compound]
[1]
  infection rate (amount of hyphae per root length): inhibited

Reference: patent US11840489B2, “Symbiosis-promoting agent and method for promoting symbiosis of arbuscular mycorrhizal fungi” (TOYOTA JIDOSHA KABUSHIKI KAISHA, priority 2020, dated 2023)
